pIC50: −log10 of the molar value.
Target: P. falciparum apicoplast DNA polymerase (Pf-apPOL) (Plasmodium falciparum, UniProt Q8ILY1)
Assay: Fluorescence-based high-throughput DNA polymerase assay (molecular beacon), primary screen and dose-response;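 for % inhibition ApPOL 90': test concentration in µM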;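 for % inhibition apPOL 180': test concentration in µM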
Assay type: biochemical
Outline: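 Single-point screening used 10 µM compound with 20 nM polymerase, 20 nM hairpin substrate and 6 µM dNTPs for 90 min at 25 °C. Confirmatory titrations (2.5–80 µM) followed fluorescence at three times, and IC50 was derived from a fit including a cooperativity term n.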

[1] = supplemental file 2, sheet IC50 nontoxic compounds; Pf-apPOL

Chain of P. falciparum apicoplast DNA polymerase (Pf-apPOL) (Q8ILY1 entry or part of it): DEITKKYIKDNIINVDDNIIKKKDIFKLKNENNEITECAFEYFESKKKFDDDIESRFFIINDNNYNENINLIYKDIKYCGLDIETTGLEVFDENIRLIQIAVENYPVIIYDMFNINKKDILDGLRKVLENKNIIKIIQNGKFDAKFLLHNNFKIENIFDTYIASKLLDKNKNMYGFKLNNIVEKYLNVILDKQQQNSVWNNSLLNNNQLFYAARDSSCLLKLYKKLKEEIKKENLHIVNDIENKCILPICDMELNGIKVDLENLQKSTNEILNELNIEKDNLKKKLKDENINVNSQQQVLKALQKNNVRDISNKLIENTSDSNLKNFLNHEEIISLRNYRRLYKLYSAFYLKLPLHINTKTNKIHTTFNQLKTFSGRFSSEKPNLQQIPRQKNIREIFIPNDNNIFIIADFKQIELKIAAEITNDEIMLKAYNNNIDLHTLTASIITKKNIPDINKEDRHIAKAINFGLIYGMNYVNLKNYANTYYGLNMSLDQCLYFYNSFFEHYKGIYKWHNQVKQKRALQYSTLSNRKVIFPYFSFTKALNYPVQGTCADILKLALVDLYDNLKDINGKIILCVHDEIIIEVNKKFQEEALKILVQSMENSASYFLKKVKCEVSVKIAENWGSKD

SMILES: O=c1cc(CN2CCCCC2)c2cc3c(cc2o1)OCO3 [Molecule 56, O=c1cc(CN2CCCCC2)c2c(o1)cc1c(c2)OCO1]
- DNA Pol ('DNA Pol' of the 186 hits list (primary screen result); unit not given; 90 min, 10 µM): 34
- % inhibition Apo pol 10' (DRC-1; 10'; concentration 2.5): -1.492%
- % inhibition Apo pol 10' (DRC-1; 10'; concentration 5): 3.303%
- % inhibition Apo pol 10' (DRC-1; 10'; concentration 10): 19.9772%
- % inhibition Apo pol 10' (DRC-1; 10'; concentration 20): 32.3483%
- % inhibition Apo pol 10' (DRC-1; 10'; concentration 40): 45.3079%
- % inhibition Apo pol 10' (DRC-1; 10'; concentration 80): 89.8826%
- % inhibition Apol 90' (DRC-1; 90'; concentration 2.5): 2.551%
- % inhibition Apol 90' (DRC-1; 90'; concentration 5): 7.455%
- % inhibition Apol 90' (DRC-1; 90'; concentration 10): 24.7772%
- % inhibition Apol 90' (DRC-1; 90'; concentration 20): 41.1965%
- % inhibition Apol 90' (DRC-1; 90'; concentration 40): 58.3854%
- % inhibition Apol 90' (DRC-1; 90'; concentration 80): 90.5438%
- % inhibition apPOL 180' (DRC-1; 180'; concentration 2.5): 3.723%
- % inhibition apPOL 180' (DRC-1; 180'; concentration 5): 9.055%
- % inhibition apPOL 180' (DRC-1; 180'; concentration 10): 32.8614%
- % inhibition apPOL 180' (DRC-1; 180'; concentration 20): 57.3951%
- % inhibition apPOL 180' (DRC-1; 180'; concentration 40): 81.7381%
- % inhibition apPOL 180' (DRC-1; 180'; concentration 80): 95.8992%
- % inhibition Apo pol 5' (DRC-2, 5', concentration 10 (unit not given)): 21%
- % inhibition Apol 40' (DRC-2, 40', concentration 2.5 (unit not given)): 8%
- % inhibition Apol 40' (DRC-2, 40', concentration 5 (unit not given)): 4%
- % inhibition Apol 40' (DRC-2, 40', concentration 20 (unit not given)): 39%
- % inhibition Apol 40' (DRC-2, 40', concentration 80 (unit not given)): 68%
- % inhibition ApPOL 90' (DRC-2, 90', concentration 20 (unit not given)): 39%
- % inhibition ApPOL 90' (DRC-2, 90', concentration 80 (unit not given)): 68%
- % inhibition apPOL 180' (DRC-2, 180', concentration 10 (unit not given)): 21%
- % inhibition Apo pol 5' (DRC-2; 5'; concentration 2.5): 5.61%
- % inhibition Apo pol 5' (DRC-2; 5'; concentration 5): 6%
- % inhibition Apo pol 5' (DRC-2; 5'; concentration 10): 21%
- % inhibition Apo pol 5' (DRC-2; 5'; concentration 20): 35%
- % inhibition Apo pol 5' (DRC-2; 5'; concentration 40): 50%
- % inhibition Apo pol 5' (DRC-2; 5'; concentration 80): 60%
- % inhibition Apol 40' (DRC-2; 40'; concentration 2.5): 8%
- % inhibition Apol 40' (DRC-2; 40'; concentration 5): 4%
- % inhibition Apol 40' (DRC-2; 40'; concentration 10): 26%
- % inhibition Apol 40' (DRC-2; 40'; concentration 20): 39%
- % inhibition Apol 40' (DRC-2; 40'; concentration 40): 54%
- % inhibition Apol 40' (DRC-2; 40'; concentration 80): 68%
- % inhibition ApPOL 90' (DRC-2; 90'; concentration 2.5): 8%
- % inhibition ApPOL 90' (DRC-2; 90'; concentration 2.5 (unit not given)): 8%
- % inhibition ApPOL 90' (DRC-2; 90'; concentration 5): -0.711%
- % inhibition ApPOL 90' (DRC-2; 90'; concentration 10): 27%
- % inhibition ApPOL 90' (DRC-2; 90'; concentration 20): 39%
- % inhibition ApPOL 90' (DRC-2; 90'; concentration 40): 53%
- % inhibition ApPOL 90' (DRC-2; 90'; concentration 80): 68%
- % inhibition apPOL 180' (DRC-2; 180'; concentration 2.5): 4%
- % inhibition apPOL 180' (DRC-2; 180'; concentration 2.5 (unit not given)): 4%
- % inhibition apPOL 180' (DRC-2; 180'; concentration 5): -66%
- % inhibition apPOL 180' (DRC-2; 180'; concentration 10): 21%
- % inhibition apPOL 180' (DRC-2; 180'; concentration 20): 32%
- % inhibition apPOL 180' (DRC-2; 180'; concentration 40): 45%
- % inhibition apPOL 180' (DRC-2; 180'; concentration 80): 64%
- DNA Pol (primary screen value of the library well; unit not given; 90 min, 10 µM): 34

SMILES: CC(C)(C)OC(=O)COc1ccc2cc(-c3ccccc3)c(=O)oc2c1 [Molecule 81]
- pIC50 [1]: 4.46

SMILES: CCCCCc1c2c(cc(O)c1C(=O)O)OC(=O)c1c(cc(OC)cc1C(=O)CCCC)O2 [Molecule 24, CCCCCc1c2Oc3cc(OC)cc(c3C(=O)Oc2cc(c1C(=O)O)O)C(=O)CCCC]
- % inhibition Apo pol 10' (DRC-1; concentration 2.5; 10'): 18.1675%
- % inhibition Apol 90' (DRC-1; concentration 2.5; 90'): 17.5572%
- % inhibition apPOL 180' (DRC-1; concentration 2.5; 180'): 13.8829%
- % inhibition Apo pol 10' (DRC-1; concentration 5; 10'): 31.5197%
- % inhibition Apol 90' (DRC-1; concentration 5; 90'): 20.3733%
- % inhibition apPOL 180' (DRC-1; concentration 5; 180'): 11.4977%
- % inhibition Apo pol 10' (DRC-1; concentration 10; 10'): 51.0452%
- % inhibition Apol 90' (DRC-1; concentration 10; 90'): 38.7515%
- % inhibition apPOL 180' (DRC-1; concentration 10; 180'): 28.4609%
- % inhibition Apo pol 10' (DRC-1; concentration 20; 10'): 86.3655%
- % inhibition Apol 90' (DRC-1; concentration 20; 90'): 81.3702%
- % inhibition apPOL 180' (DRC-1; concentration 20; 180'): 74.6955%
- % inhibition Apo pol 10' (DRC-1; concentration 40; 10'): 94.8127%
- % inhibition Apol 90' (DRC-1; concentration 40; 90'): 91.3399%
- % inhibition apPOL 180' (DRC-1; concentration 40; 180'): 88.9652%
- % inhibition Apo pol 10' (DRC-1; concentration 80 (unit not given); 10'): 96.1248%
- % inhibition Apol 90' (DRC-1; concentration 80; 90'): 93.64%
- % inhibition apPOL 180' (DRC-1; concentration 80; 180'): 92.215%
- % inhibition Apo pol 5' (DRC-2; 5'; concentration 2.5): 11%
- % inhibition Apol 40' (DRC-2; 40'; concentration 10): 51%
- % inhibition Apol 40' (DRC-2; 40'; concentration 20): 43%
- % inhibition ApPOL 90' (DRC-2; 90'; concentration 2.5): 11%
- % inhibition ApPOL 90' (DRC-2; 90'; concentration 10): 51%
- % inhibition apPOL 180' (DRC-2; 180'; concentration 5): 11%
- % inhibition apPOL 180' (DRC-2; 180'; concentration 10): 43%
- % inhibition Apo pol 5' (DRC-2; concentration 2.5; 5'): 11%
- % inhibition Apol 40' (DRC-2; concentration 2.5; 40'): 14%
- % inhibition ApPOL 90' (DRC-2; concentration 2.5; 90'): 11%
- % inhibition apPOL 180' (DRC-2; concentration 2.5; 180'): 6%
- % inhibition Apo pol 5' (DRC-2; concentration 5; 5'): 18%
- % inhibition Apol 40' (DRC-2; concentration 5; 40'): 20%
- % inhibition ApPOL 90' (DRC-2; concentration 5; 90'): 19%
- % inhibition apPOL 180' (DRC-2; concentration 5; 180'): 11%
- % inhibition Apo pol 5' (DRC-2; concentration 10; 5'): 42%
- % inhibition Apol 40' (DRC-2; concentration 10; 40'): 51%
- % inhibition ApPOL 90' (DRC-2; concentration 10; 90'): 51%
- % inhibition apPOL 180' (DRC-2; concentration 10; 180'): 43%
- % inhibition Apo pol 5' (DRC-2; concentration 20; 5'): 35%
- % inhibition Apol 40' (DRC-2; concentration 20; 40'): 43%
- % inhibition ApPOL 90' (DRC-2; concentration 20; 90'): 41%
- % inhibition apPOL 180' (DRC-2; concentration 20; 180'): 32%
- % inhibition Apo pol 5' (DRC-2; concentration 40; 5'): 49%
- % inhibition Apol 40' (DRC-2; concentration 40; 40'): 65%
- % inhibition ApPOL 90' (DRC-2; concentration 40; 90'): 66%
- % inhibition apPOL 180' (DRC-2; concentration 40; 180'): 62%
- % inhibition Apo pol 5' (DRC-2; concentration 80; 5'): 56%
- % inhibition Apol 40' (DRC-2; concentration 80; 40'): 76%
- % inhibition ApPOL 90' (DRC-2; concentration 80; 90'): 80%
- % inhibition apPOL 180' (DRC-2; concentration 80; 180'): 81%
- DNA Pol (primary screen value of the 186 hits; unit not given; 90 min, 10 µM): 33
- DNA Pol (primary screen value; head prints only 'DNA Pol'; 90 min, 10 µM): 33

SMILES: CCOc1ccccc1-c1nc(-c2ccc(=O)[nH]c2)no1 [Molecule 76]
- pIC50 [1]: 4.41
